According to PMC11111408, “Concurrent inhibition of oncogenic and wild-type RAS-GTP for cancer therapy” (Nature, 2024):
Values joined by “and” are separate entries in the source; they are usually repeats but may differ in a detail not shown here. Equal entries are not always repeated.

System: NCI-H358 and MIA PaCa-2 cells expressing RTK constructs
Assay: pERK (MSD) in NCI-H358 and MIA PaCa-2 cells expressing exogenous RTK or RTK fusion constructs
Format: cell-based, human

CCn1c(-c2cc(N3CCN(C4CC4)CC3)cnc2[C@H](C)OC)c2c3cc(ccc31)-c1csc(n1)C[C@H](NC(=O)[C@H]1[C@@H]3COC[C@@H]31)C(=O)N1CCC[C@H](N1)C(=O)OCC(C)(C)C2 [RMC-7977]
pERK inhibition in MiaPaCa2 RTK fusion overexpression cells treated with RMC-7977 (FGFR3-TACC3, RMC-7977 1.235 nM): 23.92 and 29.24 and 28.51 and 28.89
pERK inhibition in MiaPaCa2 RTK fusion overexpression cells treated with RMC-7977 (FGFR3-TACC3, RMC-7977 3.704 nM): 15.09 and 13.49 and 14.38 and 14.06
pERK inhibition in MiaPaCa2 RTK fusion overexpression cells treated with RMC-7977 (FGFR3-TACC3, RMC-7977 11.111 nM): 7.76 and 6.95 and 7.39 and 7.30
pERK inhibition in MiaPaCa2 RTK fusion overexpression cells treated with RMC-7977 (FGFR3-TACC3, RMC-7977 33.333 nM): 4.29 and 4.25 and 4.22
pERK inhibition in MiaPaCa2 RTK fusion overexpression cells treated with RMC-7977 (FGFR3-TACC3, RMC-7977 100.000 nM): 3.04 and 3.39 and 3.61 and 3.12
pERK in NCI-H358 RTK overexpression cells treated with RMC-7977 (GFP, RMC-7977 0.0152 nM): 115.00 and 107.70
pERK inhibition in H358 RTK overexpression cells (GFP, RMC-7977 0.0152 nM): 88.72 and 97.32
pERK in NCI-H358 RTK overexpression cells treated with RMC-7977 (GFP, RMC-7977 0.0457 nM): 126.84 and 117.32
pERK inhibition in H358 RTK overexpression cells (GFP, RMC-7977 0.0457 nM): 102.39 and 94.00
pERK in NCI-H358 RTK overexpression cells treated with RMC-7977 (GFP, RMC-7977 0.41 nM): 51.59 and 78.61
pERK inhibition in H358 RTK overexpression cells (GFP, RMC-7977 0.41 nM): 66.43 and 65.41
pERK inhibition in MiaPaCa2 RTK fusion overexpression cells treated with RMC-7977 (GFP, RMC-7977 0.412 nM): 27.42 and 30.00 and 31.02 and 30.72
pERK inhibition in MiaPaCa2 RTK fusion overexpression cells treated with RMC-7977 (GFP, RMC-7977 1.235 nM): 9.02 and 12.77 and 12.06 and 11.06
pERK in NCI-H358 RTK overexpression cells treated with RMC-7977 (GFP, RMC-7977 11.11 nM): 4.80
pERK inhibition in H358 RTK overexpression cells (GFP, RMC-7977 11.11 nM): 7.16 and 4.70
pERK inhibition in MiaPaCa2 RTK fusion overexpression cells treated with RMC-7977 (GFP, RMC-7977 11.111 nM): 3.33 and 3.53 and 3.95 and 3.59
pERK in NCI-H358 RTK overexpression cells treated with RMC-7977 (GFP, RMC-7977 33.33 nM): 2.56 and 2.82
pERK inhibition in H358 RTK overexpression cells (GFP, RMC-7977 33.33 nM): 3.17 and 2.48
pERK inhibition in MiaPaCa2 RTK fusion overexpression cells treated with RMC-7977 (GFP, RMC-7977 33.333 nM): 3.43 and 3.24 and 2.97 and 2.93
pERK in NCI-H358 RTK overexpression cells treated with RMC-7977 (GFP, RMC-7977 100.00 nM): 2.07 and 1.93
pERK inhibition in H358 RTK overexpression cells (GFP, RMC-7977 100.00 nM): 2.60 and 2.58
pERK inhibition in MiaPaCa2 RTK fusion overexpression cells treated with RMC-7977 (GFP, RMC-7977 100.000 nM): 3.01 and 2.87 and 2.65 and 2.84
pERK in NCI-H358 RTK overexpression cells treated with RMC-7977 (GFP, RMC-7977 300.00 nM): 2.17 and 2.42
pERK inhibition in H358 RTK overexpression cells (GFP, RMC-7977 300.00 nM): 2.46 and 2.59
pERK in NCI-H358 RTK overexpression cells treated with RMC-7977 (HER2, RMC-7977 0.0152 nM): 111.00 and 102.34
pERK inhibition in H358 RTK overexpression cells (HER2, RMC-7977 0.0152 nM): 107.19 and 89.20
pERK in NCI-H358 RTK overexpression cells treated with RMC-7977 (HER2, RMC-7977 0.0457 nM): 106.57 and 84.47
pERK inhibition in H358 RTK overexpression cells (HER2, RMC-7977 0.0457 nM): 86.86 and 85.86
pERK in NCI-H358 RTK overexpression cells treated with RMC-7977 (HER2, RMC-7977 0.41 nM): 72.44 and 63.75
pERK inhibition in H358 RTK overexpression cells (HER2, RMC-7977 0.41 nM): 63.34 and 59.01
pERK in NCI-H358 RTK overexpression cells treated with RMC-7977 (HER2, RMC-7977 11.11 nM): 2.66
pERK inhibition in H358 RTK overexpression cells (HER2, RMC-7977 11.11 nM): 6.01 and 6.18
pERK in NCI-H358 RTK overexpression cells treated with RMC-7977 (HER2, RMC-7977 33.33 nM): 1.70 and 1.64
pERK inhibition in H358 RTK overexpression cells (HER2, RMC-7977 33.33 nM): 5.40 and 5.32
pERK in NCI-H358 RTK overexpression cells treated with RMC-7977 (HER2, RMC-7977 100.00 nM): 1.42 and 1.69
pERK in NCI-H358 RTK overexpression cells treated with RMC-7977 (HER2, RMC-7977 300.00 nM): 2.02 and 1.78
pERK in NCI-H358 RTK overexpression cells treated with RMC-7977 (RET M918T, RMC-7977 0.0152 nM): 93.23 and 141.77
pERK inhibition in H358 RTK overexpression cells (RET M918T, RMC-7977 0.0152 nM): 96.21 and 105.26
pERK in NCI-H358 RTK overexpression cells treated with RMC-7977 (RET M918T, RMC-7977 0.0457 nM): 91.92 and 151.65
pERK inhibition in H358 RTK overexpression cells (RET M918T, RMC-7977 0.0457 nM): 91.15 and 96.00
pERK in NCI-H358 RTK overexpression cells treated with RMC-7977 (RET M918T, RMC-7977 0.41 nM): 60.67 and 71.79
pERK inhibition in H358 RTK overexpression cells (RET M918T, RMC-7977 0.41 nM): 61.29 and 64.34
pERK inhibition in H358 RTK overexpression cells (RET M918T, RMC-7977 3.70 nM): 20.58 and 17.35
pERK in NCI-H358 RTK overexpression cells treated with RMC-7977 (RET M918T, RMC-7977 11.11 nM): 4.81 and 4.27
pERK inhibition in H358 RTK overexpression cells (RET M918T, RMC-7977 11.11 nM): 7.08 and 6.42
pERK in NCI-H358 RTK overexpression cells treated with RMC-7977 (RET M918T, RMC-7977 33.33 nM): 2.17 and 2.02
pERK inhibition in H358 RTK overexpression cells (RET M918T, RMC-7977 33.33 nM): 3.13 and 3.07
pERK in NCI-H358 RTK overexpression cells treated with RMC-7977 (RET M918T, RMC-7977 100.00 nM): 1.44 and 1.22
pERK inhibition in H358 RTK overexpression cells (RET M918T, RMC-7977 100.00 nM): 1.99 and 2.21
pERK in NCI-H358 RTK overexpression cells treated with RMC-7977 (RET M918T, RMC-7977 300.00 nM): 1.32
pERK inhibition in H358 RTK overexpression cells (RET M918T, RMC-7977 300.00 nM): 2.03 and 1.88
